Source: ChEMBL document CHEMBL5370649, “Novel Coumarin Derivatives Inhibit the Quorum Sensing System and Iron Homeostasis as Antibacterial Synergists against Pseudomonas aeruginosa” (J Med Chem, 2023)
The source made the active and inactive calls. No cut-off for these calls is given here.

Experiments:
Pseudomonas aeruginosa [1] = assay: Antibiofilm activity against Pseudomonas aeruginosa PAO1 in ABTGC medium assessed as inhibition of biofilm formation incubated for 24 hrs by crystal violet staining based absorbance assay; type: functional, organism-based; details: PAO1, 24 h
Pseudomonas aeruginosa [2] = assay: Antibacterial activity against Pseudomonas aeruginosa PAO1 in ABTGC medium assessed as bacterial growth inhibition incubated for 16 hrs; type: functional
[3] = Toxicity in Balb/c mouse wound infection model infected with Pseudomonas aeruginosa PAO1 assessed as morphological changes in heart at 0.0025 mg/ml,TOP for 3 days in presence of N-hydroxy-7-((6-methyl-2-oxo-2H-chromen-4-yl)oxy)heptanamide by H and E staining based analysis; type: tissue-based; details: in vivo, topical_or_ocular, 72 h, time 3 day
[4] = Toxicity in Balb/c mouse wound infection model infected with Pseudomonas aeruginosa PAO1 assessed as morphological changes in liver at 0.0025 to 0.5 mg/ml,TOP for 3 days by H and E staining based analysis; type: tissue-based; details: in vivo, topical_or_ocular, 72 h, dose 0.0025-0.5 mg/ml, time 3 day
[5] = Toxicity in Balb/c mouse wound infection model infected with Pseudomonas aeruginosa PAO1 assessed as morphological changes in kidney at 0.0025 to 0.5 mg/ml,TOP for 3 days by H and E staining based analysis; type: tissue-based; details: in vivo, topical_or_ocular, 72 h, dose 0.0025-0.5 mg/ml, time 3 day
[6] = Toxicity in Balb/c mouse wound infection model infected with Pseudomonas aeruginosa PAO1 assessed as morphological changes in spleen at 0.0025 mg/ml,TOP for 3 days in presence of N-hydroxy-7-((6-methyl-2-oxo-2H-chromen-4-yl)oxy)heptanamide by H and E staining based analysis; type: tissue-based; details: in vivo, topical_or_ocular, 72 h, time 3 day
[7] = Toxicity in Balb/c mouse wound infection model infected with Pseudomonas aeruginosa PAO1 assessed as morphological changes in spleen at 0.0025 to 0.5 mg/ml,TOP for 3 days by H and E staining based analysis; type: tissue-based; details: in vivo, topical_or_ocular, 72 h, dose 0.0025-0.5 mg/ml, time 3 day
[8] = Toxicity in Balb/c mouse wound infection model infected with Pseudomonas aeruginosa PAO1 assessed as body weight change at 0.0025 to 0.5 mg/ml,TOP for 3 days; details: in vivo, topical_or_ocular, 72 h, dose 0.0025-0.5 mg/ml, time 3 day
[9] = Toxicity in Balb/c mouse wound infection model infected with Pseudomonas aeruginosa PAO1 assessed as body weight change at 0.0025 mg/ml,TOP for 3 days in presence of N-hydroxy-7-((6-methyl-2-oxo-2H-chromen-4-yl)oxy)heptanamide; details: in vivo, topical_or_ocular, 72 h, time 3 day
[10] = Toxicity in Balb/c mouse wound infection model infected with Pseudomonas aeruginosa PAO1 assessed as morphological changes in lung at 0.0025 to 0.5 mg/ml,TOP for 3 days by H and E staining based analysis; type: tissue-based; details: in vivo, topical_or_ocular, 72 h, dose 0.0025-0.5 mg/ml, time 3 day
Pseudomonas aeruginosa [11] = assay: In vivo antibacterial activity against Pseudomonas aeruginosa PAO1 infected in Balb/c mouse wound infection model assessed as healing degree of wound at 0.5 mg/ml,TOP QD for 3 days and measured after 9 days; type: functional, organism-based; details: time 3.0 day
[12] = Toxicity in Balb/c mouse wound infection model infected with Pseudomonas aeruginosa PAO1 assessed as morphological changes in heart at 0.0025 to 0.5 mg/ml,TOP for 3 days by H and E staining based analysis; type: tissue-based; details: in vivo, topical_or_ocular, 72 h, dose 0.0025-0.5 mg/ml, time 3 day
[13] = Toxicity in Balb/c mouse wound infection model infected with Pseudomonas aeruginosa PAO1 assessed as morphological changes in lung at 0.0025 mg/ml,TOP for 3 days in presence of N-hydroxy-7-((6-methyl-2-oxo-2H-chromen-4-yl)oxy)heptanamide by H and E staining based analysis; type: tissue-based; details: in vivo, topical_or_ocular, 72 h, time 3 day
[14] = Toxicity in Balb/c mouse wound infection model infected with Pseudomonas aeruginosa PAO1 assessed as morphological changes in kidney at 0.0025 mg/ml,TOP for 3 days in presence of N-hydroxy-7-((6-methyl-2-oxo-2H-chromen-4-yl)oxy)heptanamide by H and E staining based analysis; type: tissue-based; details: in vivo, topical_or_ocular, 72 h, time 3 day
[15] = Toxicity in Balb/c mouse wound infection model infected with Pseudomonas aeruginosa PAO1 assessed as morphological changes in liver at 0.0025 mg/ml,TOP for 3 days in presence of N-hydroxy-7-((6-methyl-2-oxo-2H-chromen-4-yl)oxy)heptanamide by H and E staining based analysis; type: tissue-based; details: in vivo, topical_or_ocular, 72 h, time 3 day
Pseudomonas aeruginosa [16] = assay: In vivo antibacterial activity against Pseudomonas aeruginosa PAO1 infected in Balb/c mouse wound infection model assessed as reduction in bacterial survival rate at wounded area at 0.5 mg/ml,TOP QD for 3 days by CFU assay; type: functional; details: time 3 day
[17] = Metal chelating activity assessed as Fe3+-compound complex formation assessed as pFe(III) value by fluorescence method
Pseudomonas aeruginosa [18] = assay: Inhibition of iron homeostasis in Pseudomonas aeruginosa PAO1 in ABTGC medium assessed as decrease in iron level at 1.25 to 20 uM in presence of FeCl3 by fluorescence based microplate reader analysis (Rvb= 9.6+/-2.00 microM); type: functional; details: dose 1.25-20 µM
Pseudomonas aeruginosa [19] = assay: In vivo antibacterial activity against Pseudomonas aeruginosa PAO1 infected in Balb/c mouse wound infection model assessed as healing degree of wound at 0.005 mg/ml,TOP QD for 3 days and measured after 9 days; type: functional, organism-based; details: time 3.0 day

Row | Compound | IC50 (Pseudomonas aeruginosa [1]) [µM] | MIC (Pseudomonas aeruginosa [2]) [µM] | also measured
1 | O=C(CCCCCCOc1ccccc1)NO | > 100 | > 256 | 
2 | O=C(CCCCCOc1cc(=O)oc2ccc(Cl)cc12)NO | > 100 | > 256 | 
3 | Cc1ccc2c(OCCCCCCC(=O)NO)cc(=O)oc2c1 | > 100 | > 256 | 
4 | CC[C@H]1OC(=O)[C@H](C)[C@@H](O[C@H]2C[C@@](C)(OC)[C@@H](O)[C@H](C)O2)[C@H](C)[C@@H](O[C@@H]2O[C@H](C)C[C@H](N(C)C)[C@H]2O)[C@](C)(O)C[C@@H](C)CN(C)[C@H](C)[C@@H](O)[C@]1(C)O [AZITHROMYCIN] | 17.3 |  | 
5 | Cc1ccc2oc(=O)cc(OCc3ccc(C(=O)NO)cc3)c2c1 | > 100 | > 256 | 
6 | COc1ccc2c(OCCCC(=O)NO)cc(=O)oc2c1 | > 100 | > 256 | 
7 | COc1ccc2oc(=O)cc(OCCCCCC(=O)NO)c2c1 | > 100 | > 256 | 
8 | O=C(CCCOc1cc(=O)oc2ccc(Br)cc12)NO | 70 | > 256 | 
9 | Cc1ccc2c(OCCCCC(=O)NO)cc(=O)oc2c1 | > 100 | > 256 | 
10 | COc1ccc2c(OCCCCCCC(=O)NO)cc(=O)oc2c1 | 4.74 | > 256 | 
11 | NC[C@H]1O[C@H](O[C@H]2[C@H](O)[C@@H](O[C@H]3O[C@H](CO)[C@@H](O)[C@H](N)[C@H]3O)[C@H](N)C[C@@H]2N)[C@H](N)C[C@@H]1O [TOBRAMYCIN] |  |  | Activity [3]: Non-Toxic; Activity [4]: Non-Toxic; Activity [5]: Non-Toxic; Activity [6]: Non-Toxic; Activity [7]: Non-Toxic; Activity [8]: Non-Toxic; Activity [9]: Non-Toxic; Activity [10]: Non-Toxic; Activity (Pseudomonas aeruginosa [11]): Active; Activity [12]: Non-Toxic; Activity [13]: Non-Toxic; Activity [14]: Non-Toxic; Activity [15]: Non-Toxic; Activity (Pseudomonas aeruginosa [16]): 5.77%
12 | O=C(CCCOc1cc(=O)oc2ccccc12)NO | 88.4 | > 256 | 
13 | Cc1cccc(OCCCCCCC(=O)NO)c1 | > 100 | > 256 | 
14 | Cc1ccc2oc(=O)cc(OCCCCCCCCC(=O)NO)c2c1 | 20.4 | > 256 | 
15 | O=C(CCCCCCOc1cc(=O)oc2ccc(Br)cc12)NO | 44.4 | > 256 | 
16 | O=C(CCCCOc1cc(=O)oc2cc(Cl)ccc12)NO | 42.3 | > 256 | 
17 | O=C(CCCCCCOc1cc(=O)oc2ccc(Cl)cc12)NO | > 100 | > 256 | 
18 | Cc1ccc2c(OCCCCCC(=O)NO)cc(=O)oc2c1 | > 100 | > 256 | 
19 | O=C(CCCCOc1cc(=O)oc2ccc(Br)cc12)NO | 29.7 | > 256 | 
20 | Cc1ccc2oc(=O)cc(OCCCCCCCC(=O)NO)c2c1 | > 100 | > 256 | 
21 | O=C(CCCCOc1cc(=O)oc2ccc(F)cc12)NO | 9.8 | > 256 | 
22 | Cc1ccc(OCCCCCCC(=O)NO)cc1 | > 100 | > 256 | 
23 | Cc1ccc2oc(=O)cc(NCCCCCCC(=O)NO)c2c1 | > 100 | > 256 | 
24 | O=C(CCCCCOc1cc(=O)oc2ccc(Br)cc12)NO | > 100 | > 256 | 
25 | COc1ccc2oc(=O)cc(OCCCCCCC(=O)NO)c2c1 | > 100 | > 256 | 
26 | O=C(CCCOc1cc(=O)oc2ccc(Cl)cc12)NO | > 100 | > 256 | 
27 | Cc1ccc2oc(=O)cc(OCCCCCC(=O)NO)c2c1 | 12.3 | > 256 | 

Row | Compound | IC50 (Pseudomonas aeruginosa [1]) [µM] | MIC (Pseudomonas aeruginosa [2]) [µM] | also measured
28 | CCCCCCOc1cc(=O)oc2ccc(C)cc12 | > 100 | > 256 | 
29 | Cc1c(O)c(=O)ccn1C [DEFERIPRONE] |  |  | pFe(III) [17]: 20.1; Activity (Pseudomonas aeruginosa [18]): 7.74 µM
30 | O=C(CCCOc1cc(=O)oc2ccc(F)cc12)NO | > 100 | > 256 | 
31 | Cc1ccc2oc(=O)cc(NCCCCC(=O)NO)c2c1 | > 100 | > 256 | 
32 | COc1ccc2c(OCCCCC(=O)NO)cc(=O)oc2c1 | > 100 | > 256 | 
33 | COc1ccc2oc(=O)cc(OCCCC(=O)NO)c2c1 | > 100 | > 256 | 
34 | O=C(CCCCCCOc1cc(=O)oc2cc(Cl)ccc12)NO | > 100 | > 256 | 
35 | O=C(CCCCCCOc1cc(=O)oc2ccc(F)cc12)NO | 26.4 | > 256 | 
36 | Cc1ccc2oc(=O)cc(OCCCC(=O)NO)c2c1 | 77.4 | > 256 | 
37 | O=C(CCCCCOc1cc(=O)oc2ccc(F)cc12)NO | 58.6 | > 256 | 
38 | COc1ccc2c(OCCCCCC(=O)NO)cc(=O)oc2c1 | 9.37 | > 256 | 
39 | COc1ccc2oc(=O)cc(OCCCCC(=O)NO)c2c1 | > 100 | > 256 | 
40 | Cc1ccc2oc(=O)cc(OCCCCC(=O)NO)c2c1 | 12.8 | > 256 | 
41 | O=C(CCCCCCOc1cc(=O)oc2ccccc12)NO | 69.2 | > 256 | 
42 | Cc1ccc2oc(=O)cc(NCCCCCC(=O)NO)c2c1 | > 100 | > 256 | 
43 | O=C(CCCCCOc1cc(=O)oc2cc(Cl)ccc12)NO | > 100 | > 256 | 
44 | O=C(CCCCCOc1cc(=O)oc2ccccc12)NO | 69.7 | > 256 | 
45 | Cc1ccc2c(OCCCC(=O)NO)cc(=O)oc2c1 | > 100 | > 256 | 
46 | O=C(CCCCOc1cc(=O)oc2ccccc12)NO | 42.3 | > 256 | 
47 | CCCCCCCCOc1cc(=O)oc2ccc(C)cc12 | > 100 | > 256 | 
48 | CCCCCCCOc1cc(=O)oc2ccc(C)cc12 | > 100 | > 256 | 
49 | Cc1ccccc1OCCCCCCC(=O)NO | > 100 | > 256 | 
50 | Cc1ccc2oc(=O)cc(NCCCC(=O)NO)c2c1 | > 100 | > 256 | 
51 | O=C(CCCOc1cc(=O)oc2cc(Cl)ccc12)NO | 88.4 | > 256 | 
52 | O=C(O)c1cn(C2CC2)c2cc(N3CCNCC3)c(F)cc2c1=O |  |  | Activity (Pseudomonas aeruginosa [19]): Active
53 | O=C(CCCCOc1cc(=O)oc2ccc(Cl)cc12)NO | > 100 | > 256 | 
